A short description of data set [1]: Sensory analysis of odor/smell, color and taste of Maillard reaction samples at 22 C (Examples 55-62). The format is in vivo, human.
The nature of data set [2]: Sensory evaluation of GSGs and SGs, Thaumatin, NHDC and combinations in water (Example 255). Format: in vivo, human. The procedure: 4.5 ppm Thaumatin (equivalent to 10 ppm EPCalin) was dissolved in water. Increasing amounts of NHDC (1-5 ppm) were added to the solution and the sensory properties were evaluated.
50 ppm (GSGs and SGs) were dissolved in water. Increasing amounts of NHDC (1-5 ppm) were added to the solution and the sensory properties were evaluated.
50 ppm (GSGs and SGs) and 4.5 ppm Thaumatin (equivalent to 10 ppm EPCalin) were dissolved in water. Increasing amounts of NHDC (1-5 ppm) were added to the solution and the sensory properties were evaluated.
Sweetness intensity was rated on 5-point scale
Sweetness intensity was rated on a 5-point scale

Data set [3] in a line: Sensory analysis of odor/smell, color and taste of Maillard reaction samples at 22 C (Examples 55-62). The format is in vivo, human. The procedure: The reaction partners were dissolved in water and then warmed glycerin (60° C.) was added. […]
[…] After 20 minutes in the ice bath the sealed vials were put in a water bath set to 22° C.
The odor/smell was assessed independently by 3 persons; the final description was agreed after discussion. […] The taste was assessed independently by 3 persons either in the original samples or after appropriate dilution to achieve relevant concentrations of sugars and steviol-glycosides (i.e. 5-9% SE); the final description was agreed after discussion.
This is another data set of the same source.

A short description of data set [4]: Sensory evaluation of the samples prepared in Example 50 (Example 52). Also noted: key to Intensity of Smell: “+” for slight; “++” for moderate; “+++” for very strong. The format is in vivo, human.
Protocol: The reaction partner (amino acid, carbohydrate source) were dissolved/suspended in the reaction solvent and transferred into a glass beaker filled with sand pre-heated for at least 30 minutes at the reaction temperature in a drying oven. After the planned reaction time, the vials were transferred into ice water. After cooling to room temperature, sensory analysis and analytical characterization was performed.
For evaluation of the taste profile, the samples were tested by a panel of four people. 1 trained taster tasted independently the samples first. The taster was asked to describe the taste profile and score 0-5 according to the increasing sugar likeness, bitterness, aftertaste and lingering taste profiles. The first taster was allowed to re-taste, and then make notes for the sensory attributes perceived. Afterwards, another 3 tasters tasted and the attributes were noted and discussed openly to find a suitable description. In case that more than 1 taster disagreed with the results, the tasting was repeated. In some sensory test results (above), the taste rating was expressed by “+”, which means the intensity of the factors is shown by three levels. “+” for slight, “++” for moderate and “+++” for very strong.
A short description of data set [5]: HPLC/DAD/MS detection of MRI (Amadori) products and degradation kinetics of reactants at various pH-conditions. Conditions: reaction of Phe and Xyl.
The conditions of data set [6]: cited from earlier work.
Data set [7] in a line: Assay to test reducing power (active iron-III reduction), Example 64. The format is physicochemical. The note with it: 100° C., up to 5.0 hours, diluted 1:10; FIG. 49.
Data set [8] is described as follows: DPPH radical-scavenging activity, Example 65. The format is physicochemical. The note with it: 100° C., up to 5.0 hours, diluted 1:10; FIG. 50. The procedure: 1 mg 1,1-Diphenyl-2-picrylhydrazyl radical (DPPH)/ml ethanol, dilution to assay concentration were prepared in ethanol (40 μg/mL); Calibration samples were prepared with Ascorbic acid in a concentration of 0-10 μg/mL; as a negative control sample, water was used.
Samples in aqueous solution were used as such or diluted with water.
A 0.1 ml sample (or calibration standard) was mixed with 3.9 ml solution of DPPH (100 μMolar) and reacted while protected from light at room temperature for 30 min. Absorbance was determined at 517 nm against ethanol.
10 mM of amino acid and/or 10 mM sugar were dissolved in 10 ml 0.1 mM KH2PO4-buffer, pH=7.8.
The samples were kept at 100° C. in sealed glass vials (Pyrex 15 ml with screw caps) for 0 (before reaction), 2.5 or 5.0 hours. Thereafter the samples were transferred to an ice water bath and cooled down to room temperature. These samples were diluted 1:10 and used for the test assay for anti-oxidant potential.

Setting [9] is: Table 57.3, after reaction, 10 ml KH2PO4, pH 7.8, 2.5 h, 120° C.
[10] abbreviates: Table 56.1, negative controls (no carbohydrate source), 10 ml glycerin/water=9:1, 100° C., 40 minutes.
Setting [11] is: Table 52.6, Glycerin 10 ml, 100° C., 40 min.
Setting [12] is: Table 52.7, Glycerin 10 ml, 1 h, 120° C.
[13] abbreviates: Table 52.1, samples of Example 50 after reaction.
The mark [14] stands for this setting: Table 52.5, 1 ml water + 9 ml Glycerin, 2.0 h, 120° C.
Setting [15] is: Table 57.2, before reaction, 10 ml KH2PO4, pH 7.8.
The mark [16] stands for this setting: Table 52.2, 1 ml water + 9 ml Glycerin, 0.67 h, 100° C.

In the case of `N[C@H](Cc1ccccc1)C(=O)O` [Phe], the Taste entry in data set [1] (setting [9]) is given as “sweet”.

For `COc1ccc(CCC(=O)c2c(O)cc(O[C@@H]3O[C@H](CO)[C@@H](O)[C@H](O)[C@H]3O[C@@H]3O[C@@H](C)[C@H](O)[C@@H](O)[C@H]3O)cc2O)cc1O` [10 ppm NHDC], in data set [2] (combinations of EPCalin and NHDC in water), the Sensory evaluation entry was “Sweet, steep onset of sweetness, no lingering”.

`N[C@@H](CS)C(=O)O` [12.1 mg Cys]: in data set [3] (setting [10]), the Smell entry is on record as “Unpleasant (sulfur)” and the Taste result was “Slightly sweet”.

Regarding `N[C@@H](Cc1ccccc1)C(=O)O` [3.3 mMol Phe], the Smell entry in data set [4] (Table 52.6, Glycerin 10 ml, 100° C., 5 min) is given as “Slightly bloomy”; in data set [4] (Table 52.6, Glycerin 10 ml, 100° C., 10 min), “flowery/bloomy”; in data set [4] (Table 52.6, Glycerin 10 ml, 100° C., 20 min), “flowery/bloomy”; in data set [4] (setting [11]) it was “flowery/bloomy”; in data set [4] (setting [12]) it was “flowery/bloomy”.

As to `OC[C@H]1OC(O)[C@H](O)[C@@H](O)[C@@H]1O` (stereo partly drawn) [10 mMol Glu], the Smell result in data set [4] (setting [11]) and in data set [4] (setting [12]) was “Slightly Caramel” in each case.

On to `O=C[C@H](O)[C@@H](O)[C@H](O)CO` [Xyl], for which the “% degradation” value in data set [5] (pH = 5.5) is recorded as 4.59%; in data set [5] (pH = 7.0), 6.3%; in data set [5] (pH = 8.5) it was 9.47%.

On to `O=C(O)[C@@H]1CCCN1` [11.5 mg Pro], for which the Taste entry in data set [3] (setting [10]) was “Slightly sweet”.

With `N[C@@H](Cc1ccccc1)C(=O)O` [Phe 60 mMol], in data set [4] (setting [13]), the Smell entry is “flowery/bloomy-caramel” and the Taste result is “Sweet”.

On to `O=C[C@H](O)[C@H]1OC(=O)[C@@H](O)[C@H]1O` [0.1 mMol GlucLac], for which the Smell entry in data set [4] (setting [14]) is listed as “Burnt sugar”.

Regarding `N[C@@H](Cc1ccccc1)C(=O)O` [0.1 mMol Phe], in data set [4] (setting [14]), the “Intensity of Smell” value is “+” and the Smell entry is given as “Caramel, burnt”.

For `OC[C@H]1OC(O)[C@H](O)[C@@H](O)[C@@H]1O` (stereo partly drawn) [9 mg Glucose], in data set [1] (setting [15]), the Smell result is on record as “neutral” and the Taste entry is given as “Sweet”.

For the molecule `N[C@@H](Cc1ccccc1)C(=O)O` [16.5 mg Phe], the Smell result was “Caramel, burnt” in data set [3] (Example 58, after reaction); “Neutral” in data set [3] (Example 58, before reaction); “Bloomy, caramel” in data set [3] (setting [10]); “neutral” in data set [1] (setting [15]). For the same molecule, the Taste result in data set [3] (Example 58, after reaction, after dilution 1:20) was “Sweet”; in data set [3] (setting [10]) it was “Slightly sweet”; in data set [1] (setting [15]), “No taste”.

Consider `CC1(C)[C@@H](O[C@H]2O[C@H](C(=O)O)[C@@H](O)[C@H](O)[C@H]2O[C@@H]2O[C@H](C(=O)O)[C@@H](O)[C@H](O)[C@H]2O)CC[C@]2(C)[C@H]3C(=O)C=C4[C@@H]5C[C@@](C)(C(=O)O)CC[C@]5(C)CC[C@@]4(C)[C@]3(C)CC[C@@H]12` [Glycyrrhizin, reference compound], for which the “times sweeter than sucrose (sugar)” value in data set [6] (sweetness depends on the tested concentration compared with sucrose) is reported as 30 to 50 times.

In the case of `C=C1C[C@@]23CC[C@H]4[C@@](C)(CCC[C@@]4(C)C(=O)O[C@@H]4O[C@H](CO)[C@@H](O)[C@H](O)[C@H]4O)[C@@H]2CC[C@]1(O[C@@H]1O[C@H](CO)[C@@H](O)[C@H](O[C@@H]2O[C@H](CO)[C@@H](O)[C@H](O)[C@H]2O)[C@H]1O[C@@H]1O[C@H](CO)[C@@H](O)[C@H](O)[C@H]1O)C3` [0.05 mMol Reb-A], in data set [4] (setting [16]), the Smell result was “neutral/unpleasant” and the Taste result is recorded as “sweet”.

Take `N[C@@H](Cc1ccc(O)cc1)C(=O)O` [18.1 mg Tyr]: in data set [3] (setting [10]), the Smell result was “neutral” and the Taste entry is “Slightly sweet”.

On to `NCCCC[C@H](N)C(=O)O` [14.7 mg Lys], for which, in data set [3] (setting [10]), the Smell result is listed as “Popcorn” and the Taste entry is reported as “Slightly sweet”.

For `O=C[C@H](O)[C@@H](O)[C@H](O)[C@H](O)C(=O)O` [Glucuronic Acid], in data set [1] (setting [9]), the Smell entry is given as “burnt bread” and the Taste entry is “Bitter”.

In the case of `C=C1C[C@@]23CC[C@H]4[C@@](C)(CCC[C@@]4(C)C(=O)O[C@@H]4O[C@H](CO)[C@@H](O)[C@H](O)[C@H]4O)[C@@H]2CC[C@]1(O[C@@H]1O[C@H](CO)[C@@H](O)[C@H](O[C@@H]2O[C@H](CO)[C@@H](O)[C@H](O)[C@H]2O)[C@H]1O[C@@H]1O[C@H](CO)[C@@H](O)[C@H](O)[C@H]1O)C3` [Reb-A, Rebaudioside A], the “active iron-III reduction (anti-oxidant properties)” value in data set [7] is reported as “substantial anti-oxidant properties”. In data set [8], the “radical scavenging properties (anti-oxidant properties)” value is listed as “substantial anti-oxidant properties”.

In the case of `COc1ccc(CCC(=O)c2c(O)cc(O[C@@H]3O[C@H](CO)[C@@H](O)[C@H](O)[C@H]3O[C@@H]3O[C@@H](C)[C@H](O)[C@@H](O)[C@H]3O)cc2O)cc1O` [NHDC, Neohesperidin dihydrochalcone, reference compound], the “sensory properties (sweetness, onset, mouth-feel, lingering)” value in data set [2] (in water, 4.5 ppm Thaumatin and/or 50 ppm GSGs and SGs with NHDC) is “long lasting lingering”.

For `N[C@@H](Cc1c[nH]c2ccccc12)C(=O)O` [20.42 mg Try], in data set [3] (setting [10]), the Smell result was “Unpleasant (fecal)” and the Taste entry is reported as “Slightly sweet”.

With `N[C@@H](CO)C(=O)O` [10.5 mg Ser], in data set [3] (setting [10]), the Smell entry is given as “Lotus flower” and the Taste entry is “Slightly sweet”.

Regarding `C[C@H](N)C(=O)O` [8.91 mg Ala], in data set [3] (setting [10]), the Taste entry is “Slightly sweet”.

On to `CSCC[C@H](N)C(=O)O` [14.9 mg Met], for which, in data set [3] (setting [10]), the Smell result was “Sulfuric” and the Taste result is “Slightly sweet”.

For `N[C@@H](CCC(=O)O)C(=O)O` [167 mMol Glu], in data set [4] (setting [13]), the Smell result is reported as “caramel” and the Taste result is “Sweet”.

In the case of `O=C1O[C@@H]2[C@@H](O)[C@H](O)O[C@@H]2C1O` (stereo partly drawn) [Glucuronolactone], in data set [1] (setting [9]), the Smell result is reported as “Burnt sugar” and the Taste result is on record as “Bitter”.

As to `C[C@H](N)C(=O)O` [0.1 mMol Ala], in data set [4] (setting [16]), the Smell entry is “Agar” and the Taste result is given as “sweet”.

For the molecule `CC[C@H](C)[C@H](N)C(=O)O` [13.11 mg Ile], in data set [3] (setting [10]), the Smell result is on record as “Coffee” and the Taste entry is given as “Slightly sweet”.

Turning to `C[C@@H](O)[C@H](N)C(=O)O` [11.91 mg Thr], in data set [3] (setting [10]), the Smell result is listed as “Vanilla, butter” and the Taste result is “Slightly sweet”.

As to `NC(=O)CC[C@H](N)C(=O)O` [14.62 mg Gln], in data set [3] (setting [10]), the Taste result is “Slightly sweet”.

B1: Miraculin: A protein that does not taste sweet by itself but modifies taste receptors to make sour things taste sweet temporarily (protein, UniProt P13087 30-220, looked up)
Miraculin: DSAPNPVLDIDGEKLRTGTNYYIVPVLRDHGGGLTVSATTPNGTFVCPPRVVQTRKEVDHDRPLAFFPENPKEDVVRVSTDLNINFSAFMPCRWTSSTVWRLDKYDESTGQYFVTIGGVKGNPGPETISSWFKIEEFCGSGFYKLVFCPTVCGSCKVKCGDVGIYIDQKGRRRLALSDKPFAFEFNKTVYF
For the molecule B1, the “Notes (sweet taste)” value in data set [6] (in vivo) is “A protein that does not taste sweet by itself”.

(Values after patent US11793218B2, “Sweetener and flavor compositions, methods of making and methods of use thereof” (EPC Natural Products Co., Ltd., priority 2018, dated 2023).)
